Patent US20250186321A1, “FORMULATION USING AMINO ACID AND CARBOXYLIC ACID, ORGANIC SALT, AND COMPOSITION COMPRISING SAME AND USE THEREOF” (MIYOSHI OIL & FAT CO., LTD., priority 2021, published 2025)

Experiment: Appearance of formulation (state at 25° C.)
Type: physicochemical
Details: Tables 1C-1 to 1D; compounding molar ratio (Component (A):Component (B)) 1:1
Procedure: Formulations 1 to 427 shown in Tables 1A to 1D were prepared by the above-described method using the components (A) and (B) at the compounding molar ratios shown in the tables, and their states at 25° C. were observed.

Row | SMILES | state at 25° C.
1 | N[C@@H](CS)C(=O)O.O=C(O)CC(O)(CC(=O)O)C(=O)O [Formulation 318] | Solid
2 | N[C@@H](CS)C(=O)O.O=C(O)C(O)C(O)C(=O)O (centres unmarked) [Formulation 319] | Solic
3 | N[C@@H](CS)C(=O)O.O=C(O)c1ccccc1 [Formulation 320] | Solid
4 | N[C@@H](CS)C(=O)O.O=C1O[C@H]([C@@H](O)CO)C(O)=C1O [Formulation 321] | Solid
5 | N[C@@H](CS)C(=O)O.O=C1O[C@H]([C@H](O)CO)C(O)=C1O [Formulation 322] | Solid
6 | CSCC[C@H](N)C(=O)O.O=CO [Formulation 323] | Solid
7 | CC(=O)O.CSCC[C@H](N)C(=O)O [Formulation 324] | Solid
8 | CCC(=O)O.CSCC[C@H](N)C(=O)O [Formulation 325] | Solid
9 | CCCCCC(=O)O.CSCC[C@H](N)C(=O)O [Formulation 326] | Solid
10 | CCCC(=O)O.CSCC[C@H](N)C(=O)O [Formulation 327] | Solid
11 | CSCC[C@H](N)C(=O)O.O=C(O)[C@H](O)[C@@H](O)[C@H](O)[C@H](O)CO [Formulation 328] | Solid
12 | CC(O)C(=O)O.CSCC[C@H](N)C(=O)O [Formulation 329] | Solid
13 | CSCC[C@H](N)C(=O)O.O=C(O)CCCCC(=O)O [Formulation 330] | Solid
14 | CSCC[C@H](N)C(=O)O.O=C(O)CCC(=O)O [Formulation 331] | Solid
15 | CSCC[C@H](N)C(=O)O.N[C@@H](CCC(=O)O)C(=O)O [Formulation 332] | Solid
16 | CSCC[C@H](N)C(=O)O.O=C(O)/C=C/C(=O)O [Formulation 333] | Solid
17 | CSCC[C@H](N)C(=O)O.O=C(O)C[C@H](O)C(=O)O [Formulation 334] | Solid
18 | CSCC[C@H](N)C(=O)O.O=C(O)CC(O)(CC(=O)O)C(=O)O [Formulation 335] | Solid
19 | CSCC[C@H](N)C(=O)O.O=C(O)C(O)C(O)C(=O)O (centres unmarked) [Formulation 336] | Solid
20 | CSCC[C@H](N)C(=O)O.O=C(O)c1ccccc1 [Formulation 337] | Solid
21 | CSCC[C@H](N)C(=O)O.O=C1O[C@H]([C@@H](O)CO)C(O)=C1O [Formulation 338] | Solid

Row | SMILES | state at 25° C.
22 | CSCC[C@H](N)C(=O)O.O=C1O[C@H]([C@H](O)CO)C(O)=C1O [Formulation 339] | Solid
23 | O=C(O)[C@@H]1CCCN1.O=CO [Formulation 340] | Solid
24 | CCC(=O)O.O=C(O)[C@@H]1CCCN1 [Formulation 342] | Solid
25 | CCCCCC(=O)O.O=C(O)[C@@H]1CCCN1 [Formulation 343] | Salid
26 | CCCC(=O)O.O=C(O)[C@@H]1CCCN1 [Formulation 344] | Solid
27 | O=C(O)CCCCC(=O)O.O=C(O)[C@@H]1CCCN1 [Formulation 350] | Solid
28 | O=C(O)CCC(=O)O.O=C(O)[C@@H]1CCCN1 [Formulation 351] | Solid
29 | N[C@@H](CCC(=O)O)C(=O)O.O=C(O)[C@@H]1CCCN1 [Formulation 352] | Solid
30 | O=C(O)/C=C/C(=O)O.O=C(O)[C@@H]1CCCN1 [Formulation 353] | Solid
31 | O=C(O)C(O)C(O)C(=O)O.O=C(O)[C@@H]1CCCN1 (centres unmarked) [Formulation 356] | Solid
32 | O=C(O)[C@@H]1CCCN1.O=C(O)c1ccccc1 [Formulation 357] | Solid
33 | N[C@@H](Cc1ccccc1)C(=O)O.O=CO [Formulation 360] | Solid
34 | CC(=O)O.N[C@@H](Cc1ccccc1)C(=O)O [Formulation 361] | Solid
35 | CCC(=O)O.N[C@@H](Cc1ccccc1)C(=O)O [Formulation 362] | Solid
36 | CCCCCC(=O)O.N[C@@H](Cc1ccccc1)C(=O)O [Formulation 363] | Solid
37 | CCCC(=O)O.N[C@@H](Cc1ccccc1)C(=O)O [Formulation 364] | Solid
38 | N[C@@H](Cc1ccccc1)C(=O)O.O=C(O)[C@H](O)[C@@H](O)[C@H](O)[C@H](O)CO [Formulation 365] | Solid
39 | CC(O)C(=O)O.N[C@@H](Cc1ccccc1)C(=O)O [Formulation 366] | Solid
40 | N[C@@H](Cc1ccccc1)C(=O)O.O=C(O)CCCCC(=O)O [Formulation 367] | Solid
41 | N[C@@H](Cc1ccccc1)C(=O)O.O=C(O)CCC(=O)O [Formulation 368] | Solid
42 | N[C@@H](CCC(=O)O)C(=O)O.N[C@@H](Cc1ccccc1)C(=O)O [Formulation 369] | Solid

Row | SMILES | state at 25° C.
43 | N[C@@H](Cc1ccccc1)C(=O)O.O=C(O)/C=C/C(=O)O [Formulation 370] | Solid
44 | N[C@@H](Cc1ccccc1)C(=O)O.O=C(O)C[C@H](O)C(=O)O [Formulation 371] | Salid
45 | N[C@@H](Cc1ccccc1)C(=O)O.O=C(O)CC(O)(CC(=O)O)C(=O)O [Formulation 372] | Solid
46 | N[C@@H](Cc1ccccc1)C(=O)O.O=C(O)C(O)C(O)C(=O)O [Formulation 373] | Solid
47 | N[C@@H](Cc1ccccc1)C(=O)O.O=C(O)c1ccccc1 [Formulation 374] | Solid
48 | N[C@@H](Cc1ccccc1)C(=O)O.O=C1O[C@H]([C@H](O)CO)C(O)=C1O [Formulation 375] | Solid
49 | N[C@@H](Cc1c[nH]c2ccccc12)C(=O)O.O=CO [Formulation 377] | Solid
50 | CC(=O)O.N[C@@H](Cc1c[nH]c2ccccc12)C(=O)O [Formulation 378] | Solid
51 | CCC(=O)O.N[C@@H](Cc1c[nH]c2ccccc12)C(=O)O [Formulation 379] | Solid
52 | CCCCCC(=O)O.N[C@@H](Cc1c[nH]c2ccccc12)C(=O)O [Formulation 380] | Solid
53 | CCCC(=O)O.N[C@@H](Cc1c[nH]c2ccccc12)C(=O)O [Formulation 381] | Solid
54 | N[C@@H](Cc1c[nH]c2ccccc12)C(=O)O.O=C(O)[C@H](O)[C@@H](O)[C@H](O)[C@H](O)CO [Formulation 382] | Solid
55 | CC(O)C(=O)O.N[C@@H](Cc1c[nH]c2ccccc12)C(=O)O [Formulation 383] | Solid
56 | N[C@@H](Cc1c[nH]c2ccccc12)C(=O)O.O=C(O)CCCCC(=O)O [Formulation 384] | Solid
57 | N[C@@H](Cc1c[nH]c2ccccc12)C(=O)O.O=C(O)CCC(=O)O [Formulation 385] | Solid
58 | N[C@@H](CCC(=O)O)C(=O)O.N[C@@H](Cc1c[nH]c2ccccc12)C(=O)O [Formulation 386] | Solid
59 | N[C@@H](Cc1c[nH]c2ccccc12)C(=O)O.O=C(O)/C=C/C(=O)O [Formulation 387] | Solid
60 | N[C@@H](Cc1c[nH]c2ccccc12)C(=O)O.O=C(O)C[C@H](O)C(=O)O [Formulation 388] | Solid
61 | N[C@@H](Cc1c[nH]c2ccccc12)C(=O)O.O=C(O)CC(O)(CC(=O)O)C(=O)O [Formulation 389] | Solid
62 | N[C@@H](Cc1c[nH]c2ccccc12)C(=O)O.O=C(O)C(O)C(O)C(=O)O [Formulation 390] | Solid
63 | N[C@@H](Cc1c[nH]c2ccccc12)C(=O)O.O=C(O)c1ccccc1 [Formulation 391] | Solid

Row | SMILES | state at 25° C.
64 | N[C@@H](Cc1c[nH]c2ccccc12)C(=O)O.O=C1O[C@H]([C@@H](O)CO)C(O)=C1O [Formulation 392] | Solid
65 | N[C@@H](Cc1c[nH]c2ccccc12)C(=O)O.O=C1O[C@H]([C@H](O)CO)C(O)=C1O [Formulation 393] | Solid
66 | N[C@@H](CC(=O)O)C(=O)O.O=CO [Formulation 394] | Solid
67 | CC(=O)O.N[C@@H](CC(=O)O)C(=O)O [Formulation 395] | Solid
68 | CCC(=O)O.N[C@@H](CC(=O)O)C(=O)O [Formulation 396] | Solid
69 | CCCCCC(=O)O.N[C@@H](CC(=O)O)C(=O)O [Formulation 397] | Solid
70 | CCCC(=O)O.N[C@@H](CC(=O)O)C(=O)O [Formulation 398] | Solid
71 | N[C@@H](CC(=O)O)C(=O)O.O=C(O)[C@H](O)[C@@H](O)[C@H](O)[C@H](O)CO [Formulation 399] | Solid
72 | CC(O)C(=O)O.N[C@@H](CC(=O)O)C(=O)O [Formulation 400] | Solid
73 | N[C@@H](CC(=O)O)C(=O)O.O=C(O)CCCCC(=O)O [Formulation 401] | Solid
74 | N[C@@H](CC(=O)O)C(=O)O.O=C(O)CCC(=O)O [Formulation 402] | Solid
75 | N[C@@H](CC(=O)O)C(=O)O.N[C@@H](CCC(=O)O)C(=O)O [Formulation 403] | Solid
76 | N[C@@H](CC(=O)O)C(=O)O.O=C(O)/C=C/C(=O)O [Formulation 404] | Solid
77 | NC(CC(=O)O)C(=O)O.O=C(O)CC(O)C(=O)O (centres unmarked) [Formulation 405] | Solid
78 | N[C@@H](CC(=O)O)C(=O)O.O=C(O)CC(O)(CC(=O)O)C(=O)O [Formulation 406] | Solid
79 | N[C@@H](CC(=O)O)C(=O)O.O=C(O)C(O)C(O)C(=O)O (centres unmarked) [Formulation 407] | Solid
80 | N[C@@H](CC(=O)O)C(=O)O.O=C(O)c1ccccc1 [Formulation 408] | Solid
81 | N[C@@H](CC(=O)O)C(=O)O.O=C1O[C@H]([C@@H](O)CO)C(O)=C1O [Formulation 409] | Solid
82 | N[C@@H](CC(=O)O)C(=O)O.O=C1O[C@H]([C@H](O)CO)C(O)=C1O [Formulation 410] | Solid
83 | N[C@@H](CCC(=O)O)C(=O)O.O=CO [Formulation 411] | Solid
